Drawing on patent publication US9834521B2, “Choline kinase inhibitors” (ARIAD Pharmaceuticals, Inc., priority 2013, dated 2017), this text covers IC50, Kd and GI50 for 28 compounds.

In test [1] the target is T1, truncated form of human Choline kinase α1 that includes residues 75-457 (Homo sapiens, UniProt P35790).
T1 construct: made in house
As to the kind of experiment: Kinase Assay, coupled (ATP regeneration) LDH/PK assay, NADH absorbance. It is filed as biochemical. As to the method:
Absorbance of NADH (340 nm) was measured over 30 min using a SpectraMax M5 (Molecular Devices). Initial reaction velocity (ΔA340/Δt) was calculated and plotted as a function of inhibitor concentration in a 2-fold dilution series. IC50 values were obtained by fitting the relative velocities to a dose-response model.

For the next test, the target named is T2, ChoKα protein (Homo sapiens, UniProt P35790).
T2 construct: made in house
As to the kind of experiment: Binding affinity by surface plasmon resonance (SensiQ Pioneer, FastStep). The method, then:
KD may be measured using surface plasmon resonance (BIAcore®) technology, see, e.g., Panayotou et al, Mol. Cell. […] ChoKα protein was immobilized by standard amine coupling methods on a COOH5 sensor chip installed in a SensiQ Pioneer system. Sensograms were measured using the FastStep™ screen method with an upper concentration of 500 nM. Kinetics and affinity were obtained from fits using a 1:1 binding model.
On the technique in general: In SPR one partner is held on a chip, and binding of the other changes the refractive index at the surface.

The test system of another test is cancer cell lines. The test is described as follows: Cellular Growth Inhibition Assay (CyQuant Cell Proliferation Assay Kit). It is filed as cell-based. As to the method: Cellular Growth Inhibition AssayVehicle or compound treated cells were assessed for cell growth after 72 hours of treatment using the CyQuant® Cell Proliferation Assay Kit (Life Technologies, Grand Island, N.Y.). […] Data are shown as mean (±SD) from ≧2 separate experiments.

Setting [2] is: Examples not designated with an asterisk, footnote prints version 1 of the Kinase Assay, read-out: IC50.
Setting [3] is: SPR, 1:1 binding model, upper concentration 500 nM, read-out: Kd.
Where [4] appears, read: 72 hours of treatment, cell line not named, read-out: GI50.
[5] abbreviates: Examples designated with an asterisk (*): version 1 of the Kinase Assay, 200 nM enzyme, read-out: IC50.

Like-named read-outs stand apart in the source and are kept apart here.

T1 sequence (P35790 75-457): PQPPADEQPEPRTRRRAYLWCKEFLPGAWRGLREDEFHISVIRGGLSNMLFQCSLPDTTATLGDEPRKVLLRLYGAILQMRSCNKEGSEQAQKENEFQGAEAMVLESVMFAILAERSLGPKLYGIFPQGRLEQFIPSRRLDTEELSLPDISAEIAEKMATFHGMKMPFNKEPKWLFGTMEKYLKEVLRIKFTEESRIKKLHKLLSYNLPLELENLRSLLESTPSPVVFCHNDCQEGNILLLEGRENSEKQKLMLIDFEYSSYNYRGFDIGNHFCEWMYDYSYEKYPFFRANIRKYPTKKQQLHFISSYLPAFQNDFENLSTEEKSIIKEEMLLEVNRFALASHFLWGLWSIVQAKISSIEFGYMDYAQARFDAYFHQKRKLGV
T2 sequence (P35790 75-457): as above

Regarding `CN1CCCN(Cc2ccc(-c3ccc(C(=O)N4CCCN(C)CC4)cc3)c(C#N)c2)CC1` [Example 33, 4-((4-methyl-1,4-diazepan-1-yl)methyl)-4′-(4-methyl-1,4-diazepane-1-carbonyl)-[1,1′-biphenyl]-2-carbonitrile], the IC50 in test [1] (setting [2]) is less than 200 nM. In addition, the Kd on ChoKα protein (setting [3]) was less than 200 nM. For the same compound, the GI50 in the test on cancer cell lines (setting [4]) was greater than 20000 nM.
`CN1CCCN(Cc2ccc(-c3ccc(CN4CCCN(C)CC4)c(F)c3)cc2)CC1` [Example 42, 4,4′-((3-fluoro-[1,1′-biphenyl]-4,4′-diyl)bis(methylene))bis(1-methyl-1,4-diazepane)]: in test [1] (setting [2]), the IC50 is less than 200 nM. The Kd on ChoKα protein (setting [3]) is less than 200 nM. Besides, in the test on cancer cell lines (setting [4]), the GI50 is less than 5000 nM.
With `COc1ccc(-c2cc(C(=O)N3CCCN(C)CC3)ccc2-c2ccc(CN3CCCN(C)CC3)cc2C#N)cc1` [Example 66, 4″-methoxy-4-((4-methyl-1,4-diazepan-1-yl)methyl)-4′-(4-methyl-1,4-diazepane-1-carbonyl)-[1,1′:2′,1″-terphenyl]-2-carbonitrile], the IC50 in test [1] (setting [2]) is less than 100 nM. On ChoKα protein (setting [3]), the Kd was less than 50 nM. For the same compound, in the test with cancer cell lines (setting [4]), the GI50 is less than 20000 nM.
The like results for `CN1CCCN(Cc2ccc(-c3ccc(C4(NS(C)(=O)=O)CC4)cc3)c(C#N)c2)CC1` [Example 82, N-(1-(2′-cyano-4′-((4-methyl-1,4-diazepan-1-yl)methyl)-[1,1′-biphenyl]-4-yl)cyclopropyl)methanesulfonamide] were, in that order, less than 100 nM, less than 50 nM and less than 20000 nM.
In test [1], `CN1CCCN(Cc2ccc(-c3ccc(C(=O)N4CCCN(C)CC4)cc3)cc2)CC1` [Example 37, (4-methyl-1,4-diazepan-1-yl)(4′-((4-methyl-1,4-diazepan-1-yl)methyl)-[1,1′-biphenyl]-4-yl)methanone] yielded an IC50 of less than 200 nM. This compound also showed a Kd on ChoKα protein of less than 200 nM. This compound also gave a GI50 in the test on cancer cell lines (72 h) greater than 20000 nM.
Consider `CN1CCCN(Cc2ccc(-c3ccc(NS(C)(=O)=O)cc3)c(C#N)c2)CC1` [Example 104, N-(2′-cyano-4′-((4-methyl-1,4-diazepan-1-yl)methyl)-[1,1′-biphenyl]-4-yl)methanesulfonamide], for which, in test [1] (setting [2]), the IC50 was less than 100 nM. Further, the Kd at ChoKα protein (setting [3]) was less than 50 nM. The GI50 with cancer cell lines (setting [4]) is greater than 20000 nM.
The like results for `CN1CCCN(Cc2ccc(-c3ccc(CN4CCC(O)CC4)cc3)c(C#N)c2)CC1` [Example 4, 4′-((4-hydroxypiperidin-1-yl)methyl)-4-((4-methyl-1,4-diazepan-1-yl)methyl)-[1,1′-biphenyl]-2-carbonitrile] were, in that order, less than 100 nM, less than 50 nM and less than 20000 nM.
The compound `CN1CCCN(Cc2ccc(-c3cc(F)c(CN4CCCN(C)CC4)c(F)c3)cc2)CC1` [Example 40, 4,4′-((3,5-difluoro-[1,1′-biphenyl]-4,4′-diyl)bis(methylene))bis(1-methyl-1,4-diazepane)] registered an IC50 in test [1] of less than 200 nM. The compound also yielded a Kd on ChoKα protein of less than 60000 nM. The same compound registered a 50% growth inhibitory concentration (GI50) in the test on cancer cell lines (72 h) of less than 20000 nM.
Compound `CN1CCCN(Cc2ccc(-c3ccc(CN4CCCN(C)CC4)c(F)c3F)cc2)CC1` [Example 41, 4,4′-((2,3-difluoro-[1,1′-biphenyl]-4,4′-diyl)bis(methylene))bis(1-methyl-1,4-diazepane)] registered an IC50 in test [1] of less than 100 nM. On ChoKα protein, this compound returned a Kd of less than 100 nM. In the test with cancer cell lines (72 h), this compound returned a GI50 of less than 5000 nM.
For `Cc1cc(C(=O)N2CCCN(C)CC2)ccc1-c1ccc(CN2CCCN(C)CC2)cc1` [Example 50, (4-methyl-1,4-diazepan-1-yl)(2-methyl-4′-((4-methyl-1,4-diazepan-1-yl)methyl)-[1,1′-biphenyl]-4-yl)methanone], in test [1] (setting [2]), the IC50 was less than 200 nM. Also, on ChoKα protein (setting [3]), the Kd was less than 60000 nM. In addition, the GI50 with cancer cell lines (setting [4]) is less than 5000 nM.
With `CC(=O)NNC(=O)CCc1ccc(-c2ccc(CN3CCCN(C)CC3)cc2C#N)cc1` [Example 83, N′-acetyl-3-(2′-cyano-4′-((4-methyl-1,4-diazepan-1-yl)methyl)-[1,1′-biphenyl]-4-yl)propanehydrazide], the concentration for half-maximal inhibition (IC50) in test [1] (setting [2]) was less than 100 nM. In addition, on ChoKα protein (setting [3]), the Kd was less than 50 nM. Also, the GI50 with cancer cell lines (setting [4]) was greater than 20000 nM.
For the compound `CN1CCCN(Cc2ccc(-c3ccc(CN4CCCN(C)CC4)cc3F)cc2)CC1` [Example 44, 4,4′-((2-fluoro-[1,1′-biphenyl]-4,4′-diyl)bis(methylene))bis(1-methyl-1,4-diazepane)], in test [1], the IC50 was less than 200 nM. The compound further displayed a Kd on ChoKα protein of less than 200 nM. Moreover, the GI50 in the test with cancer cell lines (72 h) was less than 5000 nM.
With `CN1CCCN(Cc2ccc(-c3ccc(CN4CCCN(C)CC4)cc3C#N)c(C#N)c2)CC1` [Example 56, 4,4′-bis((4-methyl-1,4-diazepan-1-yl)methyl)-[1,1′-biphenyl]-2,2′-dicarbonitrile], the IC50 in test [1] (setting [2]) is less than 100 nM. The Kd at ChoKα protein (setting [3]) is less than 100 nM. In the test with cancer cell lines (setting [4]), the GI50 was less than 20000 nM.
As for `CN1CCCN(Cc2ccc(-c3ccc(CN4CCCN(C)CC4)cc3C#N)cc2)CC1` [Example 14, 4,4′-bis((4-methyl-1,4-diazepan-1-yl)methyl)-[1,1′-biphenyl]-2-carbonitrile], the IC50 in test [1] was less than 100 nM. The same compound had a Kd on ChoKα protein of less than 50 nM. The same compound returned a GI50 in the test with cancer cell lines (72 h) of less than 5000 nM.
With `CN1CCCN(Cc2ccc(-c3ccc(S(N)(=O)=O)cc3)c(C#N)c2)CC1` [Example 87, 2′-cyano-4′-((4-methyl-1,4-diazepan-1-yl)methyl)-[1,1′-biphenyl]-4-sulfonamide], the IC50 in test [1] (setting [2]) was less than 100 nM. Moreover, the Kd on ChoKα protein (setting [3]) is less than 100 nM. In addition, in the test with cancer cell lines (setting [4]), the GI50 was greater than 20000 nM.
Take `CNS(=O)(=O)c1ccc(-c2ccc(CN3CCCN(C)CC3)cc2C#N)c(C)c1` [Example 97, 2′-cyano-N,2-dimethyl-4′-((4-methyl-1,4-diazepan-1-yl)methyl)-[1,1′-biphenyl]-4-sulfonamide]: in test [1] (setting [2]), the IC50 is less than 200 nM. Besides, the Kd at ChoKα protein (setting [3]) was less than 200 nM.
In test [1], `CN1CCCN(Cc2ccc(-c3ccc(N4CCN(C)CC4)cc3)cc2)CC1` [Example 138, 1-methyl-4-((4′-(4-methylpiperazin-1-yl)-[1,1′-biphenyl]-411)methyl)-1,4-diazepane] yielded an IC50 of less than 200 nM. At ChoKα protein, this compound came in with a Kd of less than 60000 nM.
With `CN1CCCN(Cc2ccc(-c3ccc4cn[nH]c4c3)c(C#N)c2)CC1` [Example 89, 2-(1H-indazol-6-yl)-5-((4-methyl-1,4-diazepan-1-yl)methyl)benzonitrile], the IC50 in test [1] (setting [2]) was less than 100 nM. Besides, at ChoKα protein (setting [3]), the Kd was less than 50 nM. The GI50 with cancer cell lines (setting [4]) was greater than 20000 nM.
As to `CN1CCCN(Cc2ccc(-c3ccc(CN)cc3)c(C#N)c2)CC1` [Example 16, 4′-(aminomethyl)-4-((4-methyl-1,4-diazepan-1-yl)methyl)-[1,1′-biphenyl]-2-carbonitrile], in test [1] (setting [2]), the IC50 was less than 200 nM. The Kd at ChoKα protein (setting [3]) was less than 200 nM.
With `CN(C)CCCNC(=O)c1ccc(-c2ccc(CN3CCCN(C)CC3)cc2C#N)cc1` [Example 30, 2′-cyano-N-(3-(dimethylamino)propyl)-4′-((4-methyl-1,4-diazepan-1-yl)methyl)-[1,1′-biphenyl]-4-carboxamide], the concentration for half-maximal inhibition (IC50) in test [1] (setting [2]) was less than 100 nM. For the same compound, at ChoKα protein (setting [3]), the Kd was less than 50 nM.
For `CNS(=O)(=O)c1ccc(-c2ccc(CN3CCCN(C)CC3)cc2C#N)cc1` [Example 86, 2′-cyano-N-methyl-4′-((4-methyl-1,4-diazepan-1-yl)methyl)-[1,1′-biphenyl]-4-sulfonamide], the IC50 in test [1] (setting [2]) is less than 100 nM. Moreover, the Kd on ChoKα protein (setting [3]) is less than 50 nM. In addition, in the test on cancer cell lines (setting [4]), the GI50 is less than 5000 nM.
For `CN1CCCN(Cc2ccc(CN3CCC(N4CCCC4)CC3)cc2)CC1` [Example 148, 1-methyl-4-(4-((4-(pyrrolidin-1-yl)piperidin-1-yl)methyl)benzyl)-1,4-diazepane], the IC50 in test [1] (setting [5]) was less than 200 nM. The Kd on ChoKα protein (setting [3]) was less than 60000 nM.
The like results for `CN1CCCN(Cc2ccc(-c3ccccc3)c(F)c2)CC1` [Example 134, 1-((2-fluoro-[1,1′-biphenyl]-4-yl)methyl)-4-methyl-1,4-diazepane] were, in that order, less than 200 nM and less than 60000 nM.
The like results for `CN1CCCN(Cc2ccc(-n3cccn3)cc2F)CC1` [Example 142, 1-(2-fluoro-4-(1H-pyrazol-1-yl)benzyl)-4-methyl-1,4-diazepane] were, in that order, less than 200 nM and less than 60000 nM.
In test [1], `COc1ccc(-c2ccc(CN3CCCN(C)CC3)cc2)cc1` [Example 128, 1-((4′-methoxy-[1,1′-biphenyl]-4-yl)methyl)-4-methyl-1,4-diazepane] displayed an IC50 of less than 200 nM. On ChoKα protein, this compound had a Kd of less than 60000 nM.
With `COc1ccc(-c2cc(C(=O)N3CCCN(C)CC3)ccc2-c2ccc(CN3CCCN(C)CC3)cc2C#N)cc1OC` [Example 81, 3″,4″-dimethoxy-4-((4-methyl-1,4-diazepan-1-yl)methyl)-4′-(4-methyl-1,4-diazepane-1-carbonyl)-[1,1′1:2′,1″-terphenyl]-2-carbonitrile], the IC50 in test [1] (setting [2]) is less than 100 nM. For the same compound, on ChoKα protein (setting [3]), the Kd was less than 50 nM.
The matching figures for `CCOc1ccc(-c2cc(C(=O)N3CCCN(C)CC3)ccc2-c2ccc(CN3CCCN(C)CC3)cc2C#N)cc1` [Example 79, 4″-ethoxy-4-((4-methyl-1,4-diazepan-1-yl)methyl)-4′-(4-methyl-1,4-diazepane-1-carbonyl)-[1,1′1:2′,1″-terphenyl]-2-carbonitrile]: less than 100 nM and less than 50 nM.
Take `CN1CCCN(Cc2ccc(-c3ccncc3)cc2)CC1` [Example 140, 1-methyl-4-(4-(pyridin-4-yl)benzyl)-1,4-diazepane]: the IC50 in test [1] (setting [5]) is less than 200 nM. Further, the Kd at ChoKα protein (setting [3]) is less than 60000 nM.

Usually IC50 stands for the concentration needed to halve the response being measured. By Kd is commonly meant the free concentration of one partner at which half of the binding sites on the other are occupied at equilibrium, for simple one-to-one binding. For orientation: GI50 means the concentration that inhibits growth by half.
